ChEMBL document CHEMBL1201862, “PubChem BioAssay data set” (2004)
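Cells were grown in 96-well plates and exposed to each compound for 48 hours at five concentrations; endpoints were interpolated linearly between bracketing concentrations, or set to the highest concentration if not reached. At the GI50, growth is halved.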 Calls of active or inactive are those of the source. Rule as the data show it: active = GI50 up to about 1.1 µM and inactive = higher.

How the values were obtained:
Assay in all cases: NCI tumour cell line growth inhibition, 48 h
[1] = system: SK-MEL-5
[2] = system: SF-268
[3] = system: OVCAR-5
[4] = system: SK-MEL-28
[5] = system: 786-0
[6] = system: KM12
[7] = system: DU-145
[8] = system: SF-295
[9] = system: SR
[10] = system: HCT-15
[11] = system: UO-31
[12] = system: U-251
[13] = system: CAKI-1
[14] = system: ACHN
[15] = system: EKVX
[16] = system: A549
[17] = system: SK-OV-3
[18] = system: HT-29
[19] = system: UACC-62
[20] = system: A498
[21] = system: SNB-19
[22] = system: BT-549
[23] = system: MDA-N
[24] = system: UACC-257
[25] = system: HOP-62
[26] = system: OVCAR-4
[27] = system: SF-539
[28] = system: IGROV-1
[29] = system: RPMI-8226
[30] = system: COLO 205
[31] = system: Hs-578T
[32] = system: M14
[33] = system: NCI-H23
[34] = system: MOLT-4
[35] = system: SW-620
[36] = system: Malme-3M
[37] = system: NCI-H522
[38] = system: PC-3
[39] = system: NCI-H226
[40] = system: TK-10
[41] = system: HCT-116
[42] = system: HOP-92
[43] = system: RXF 393
[44] = system: MDA-MB-435
[45] = system: LOX IMVI
[46] = system: K562
[47] = system: NCI/ADR-RES
[48] = system: OVCAR-3
[49] = system: NCI-H460
[50] = system: SN12C
[51] = system: HCC 2998
[52] = system: MCF7
[53] = system: HL-60
[54] = system: T47D
[55] = system: SK-MEL-2
[56] = system: OVCAR-8
[57] = system: MDA-MB-231

For `Nc1nc(-c2cccc([N+](=O)[O-])c2)cc(-c2cc(-c3cccc([N+](=O)[O-])c3)nc(N)n2)n1`, the GI50 [1] was > 100 µM (inactive), the GI50 [2] was > 100 µM (inactive) and the GI50 [3] was > 100 µM (inactive). For the same compound, the GI50 [4] was > 100 µM (inactive), the GI50 [5] was > 100 µM (inactive) and the GI50 [6] was > 100 µM (inactive). For the same compound, the GI50 [7] was > 100 µM (inactive), the GI50 [8] was > 100 µM (inactive) and the GI50 [9] was > 100 µM (inactive). For the same compound, the GI50 [10] was greater than 100 µM, the GI50 [11] was > 100 µM (inactive) and the GI50 [12] was > 100 µM (inactive). The GI50 [13] was > 100 µM (inactive), the GI50 [14] was > 100 µM (inactive) and the GI50 [15] was > 100 µM (inactive). The GI50 [16] was > 100 µM (inactive), the GI50 [17] was > 100 µM (inactive) and the GI50 [18] was > 100 µM (inactive). For the same compound, the GI50 [19] was > 100 µM (inactive), the GI50 [20] was > 100 µM (inactive) and the GI50 [21] was > 100 µM (inactive). For the same compound, the GI50 [22] was > 100 µM (inactive), the GI50 [23] was > 100 µM (inactive) and the GI50 [24] was > 100 µM (inactive). The GI50 [25] was > 100 µM (inactive), the GI50 [26] was > 100 µM (inactive) and the GI50 [27] was > 100 µM (inactive). For the same compound, the GI50 [28] was > 100 µM (inactive), the GI50 [29] was > 100 µM (inactive) and the GI50 [30] was > 100 µM (inactive). The GI50 [31] was > 100 µM (inactive), the GI50 [32] was > 100 µM (inactive) and the GI50 [33] was > 100 µM (inactive). The GI50 [34] was > 100 µM (inactive), the GI50 [35] was > 100 µM (inactive) and the GI50 [36] was > 100 µM (inactive). For the same compound, the GI50 [37] was > 100 µM (inactive), the GI50 [38] was > 100 µM (inactive) and the GI50 [39] was > 100 µM (inactive). For the same compound, the GI50 [40] was > 100 µM (inactive), the GI50 [41] was > 100 µM (inactive) and the GI50 [42] was > 100 µM (inactive). For the same compound, the GI50 [43] was > 100 µM (inactive), the GI50 [44] was > 100 µM (inactive) and the GI50 [45] was > 100 µM (inactive). For the same compound, the GI50 [46] was > 100 µM (inactive), the GI50 [47] was > 100 µM (inactive) and the GI50 [48] was > 100 µM (inactive). For the same compound, the GI50 [49] was > 100 µM (inactive), the GI50 [50] was > 100 µM (inactive) and the GI50 [51] was > 100 µM (inactive). The GI50 [52] was > 100 µM (inactive), the GI50 [53] was > 100 µM (inactive) and the GI50 [54] was > 100 µM (inactive). For the same compound, the GI50 [55] was > 100 µM (inactive), the GI50 [56] was > 100 µM (inactive) and the GI50 [57] was > 100 µM (inactive).
